Data: patent publication EP3498266A1, “FORMULATIONS OF COPANLISIB” (priority 2017, dated 2019)
Read-outs that look alike come from different tables or passages of the source.

What was measured:
[1] = Solubility of copanlisib dihydrochloride, flask method, HPLC; type: physicochemical; details: for Descriptive term: according to Ph. Eur./USP; for solubility at 19 h: 25 °C, thermodynamic from solid
From the text: The suspension was centrifuged before HPLC analysis.

[2] = Hydrolytic (chemical) stability in aqueous solution, HPLC; type: physicochemical
Method: The different aqueous solutions (0.05 % copanlisib; after addition of 50 % 2-propanol, [buffer solution filtered with 0.5µm membrane filter]) were stored at 25°C and 70°C for 24 h and one week. An analytical HPLC-method has been developed to determine assay and organic impurities of copanlisib as well as degradation products. Table 2 : Results on hydrolytic stability of copanlisib

[3] = test system: indolent B-cell non-Hodgkin lymphoma
Method: Methods: Patients with indolent B-cell non-Hodgkin lymphoma (4 subtypes: follicular (FL), marginal zone (MZL), small lymphocytic (SLL) and lymphoplasmacytoid/Waldenström macroglobulinemia (LPL-WM)) and relapsed after, or refractory to, ≥2 prior lines of treatment were eligible. […] Copanlisib (60 mg, I.V.) was intermittently administered on days 1, 8 and 15 of a 28-day cycle.

[4] = full analysis set, 142 patients

COc1c(OCCCN2CCOCC2)ccc2c1N=C(NC(=O)c1cnc(N)nc1)N1CCN=C21.Cl.Cl [copanlisib dihydrochloride, 2-amino-N-[7-methoxy-8-(3-morpholin-4-ylpropoxy)-2,3-dihydroimidazo[1,2-c]quinazolin-5-yl]pyrimidine-5-carboxamide dihydrochloride]
Descriptive term ([1]; 0.1 M Hydrochloric acid): freely soluble
solubility at 19 h ([1]; 0.1 M hydrochloric acid, simulated gastric fluid): 190 mg/mL
solubility at 19 h ([1]; aqueous buffer, Buffer (citrate) pH 3): 250 mg/mL
solubility at 19 h ([1]; aqueous buffer, Buffer (citrate) pH 4): 25 mg/mL
solubility at 19 h ([1]; aqueous buffer, Buffer (citrate) pH 5): 0.62 mg/mL
solubility at 19 h ([1]; aqueous buffer, Buffer (phosphate) pH 1): 510 mg/mL
solubility at 19 h ([1]; aqueous buffer, Buffer (phosphate) pH 2): 250 mg/mL
solubility at 19 h ([1]; aqueous buffer, Buffer (phosphate) pH 6): 0.001 mg/mL
Descriptive term ([1]; Buffer (citrate) pH 3): freely soluble
Descriptive term ([1]; Buffer (citrate) pH 4): soluble
Descriptive term ([1]; Buffer (citrate) pH 5): very slightly soluble
Descriptive term ([1]; Buffer (phosphate) pH 1): freely soluble
Descriptive term ([1]; Buffer (phosphate) pH 2): freely soluble
Descriptive term ([1]; Buffer (phosphate) pH 6): practically insoluble
Descriptive term ([1]; Buffer (phosphate) pH 7): practically insoluble
Descriptive term ([1]; Water): freely soluble
solubility at 19 h ([1]; water): 230 mg/mL

COc1c(OCCCN2CCOCC2)ccc2c1N=C(NC(=O)c1cnc(N)nc1)N1CCN=C21 [copanlisib, 2-amino-N-[7-methoxy-8-(3-morpholin-4-ylpropoxy)-2,3-dihydroimidazo[1,2-c]quinazolin-5-yl]pyrimidine-5-carboxamide]
Appearance ([2]; 0.1M HCl, 1 week, 25°C): slightly colored solution
Appearance ([2]; 0.1M HCl, 1 week, 70°C): slightly colored solution
Appearance ([2]; 0.1M HCl, 24 h, 25°C): slightly colored solution
Appearance ([2]; 0.1M HCl, 24h, 70°C): slightly colored solution
Appearance ([2]; 0.1M HCl, Initial): slightly colored solution
Appearance ([2]; 0.1 M NaOH, 1week, 25°C): slightly colored solution
Appearance ([2]; 0.1 M NaOH, 1week, 70°C): slightly colored solution
Appearance ([2]; 0.1 M NaOH, 24 h, 25°C): slightly colored solution
Appearance ([2]; 0.1 M NaOH, 24h, 70°C): slightly colored solution
Appearance ([2]; 0.1 M NaOH, Initial): slightly colored solution
Appearance ([2]; Buffer pH 7, 1 week, 25°C): slightly colored turbid solution
Appearance ([2]; Buffer pH 7, 1 week, 70°C): slightly colored solution
Appearance ([2]; Buffer pH 7, 24 h, 25°C): slightly colored turbid solution
Appearance ([2]; Buffer pH 7, 24 h, 70°C): slightly colored solution
Appearance ([2]; Buffer pH 7, Initial): slightly colored turbid solution
Appearance ([2]; Water, 1 week, 25°C): slightly colored solution
Appearance ([2]; Water, 1 week, 70°C): slightly colored solution
Appearance ([2]; Water, 24 h, 25°C): slightly colored solution
Appearance ([2]; Water, 24h, 70°C): slightly colored solution
Appearance ([2]; Water, Initial): slightly colored solution
CR ([3]; FL subset): 14.4%
ORR ([3]; FL subset): 58.7%
PR ([3]; FL subset): 44.2%
estimated Kaplan-Meier (KM) median duration of response ([3]; FL subset (range 0-687)): 370 days
CR ([3]; MZL subset): 8.7%
ORR ([3]; MZL subset): 69.6%
PR ([3]; MZL subset): 60.9%
AEs of interest: colitis ([3]; all grade): 0.7%
AEs of interest: diarrhea ([3]; all grade): 18%
AEs of interest: lung infection ([3]; all grade): 14%
AEs of interest: neutropenia ([3]; all grade): 25%
AEs of interest: pneumonitis ([3]; all grade): 7%
treatment-related adverse events: hypertension ([3]; all grade): 29%
treatment-related adverse events: transient hyperglycemia ([3]; all grade, 60 mg I.V. days 1, 8, 15 of 28-day cycle): 49%
Laboratory toxicities: alanine aminotransferase ([3]; all-grade): 23%
Laboratory toxicities: aspartate aminotransferase ([3]; all-grade): 28%
Median overall survival ([3]; at the time of primary analysis): had not yet been reached
complete response (CR) ([3]; full analysis set): 12.0%
estimated Kaplan-Meier (KM) median duration of response ([3]; full analysis set (range 0-687)): 687 days
colonic perforations [3, 4]: No colonic perforations occurred
deaths [3, 4]: 6
non-fatal opportunistic infections [3, 4]: two
AEs of interest: colitis ([3]; human, in vivo): 0.7%
AEs of interest: diarrhea ([3]; human, in vivo): 4%
AEs of interest: lung infection ([3]; human, in vivo): 11%
AEs of interest: neutropenia ([3]; human, in vivo): 19%
AEs of interest: pneumonitis ([3]; human, in vivo): 1.4%
Laboratory toxicities: alanine aminotransferase ([3]; human, in vivo): 19%
Laboratory toxicities: aspartate aminotransferase ([3]; human, in vivo): 25%
treatment-related adverse events: hypertension ([3]; human, in vivo): 23%
treatment-related adverse events: transient hyperglycemia ([3]; human, in vivo): 40%
deaths attributed to copanlisib ([3]; lung infection, respiratory failure, and a thromboembolic event): 3
KM-estimate of median PFS ([3]; range 0-736): 340 days
